Reference: patent US4386103A, “Dichloroamino acid derivatives useful as potent germicidal and fungicidal agents” (Merck & Co., Inc., priority 1981, dated 1983)

Tests used:
Type in all cases: cell-based
Staphylococcus aureus = test: Contact germicidal screen, Staphylococcus aureus ATCC No. 6538
Experimental: (§1) The organisms used in the contact germicidal screen are all maintained as stock cultures on nutrient agar […] 4° C. They are transferred and biochemically diagnosed monthly. The five organisms used are: The media used are: […] Overnight cultures of the test organisms are grown in tryptose phosphate broth. After 15-16 hours, the cultures are centrifuged at […] for 15 minutes, and the supernatant replaced with fresh warm (37° C.) media. After two hours of incubation, the absorbance of the culture at 650 nm is determined and diluted with nutrient broth to 1×10^7 colony forming units per ml (using a previous determined standard curve: colony forming units/ml vs. absorbance at 650). The diluted cultures are maintained at 4°-8° C. throughout the screen. The compounds are weighed into sterile 100 ml volumetric flasks, and immediately before screening dissolved in one of the following buffers: 0.1 M NaOAc pH 4.6 or 0.1 M NaH2 PO4 pH 7.0. If solubility poses a problem, 10-30% methanol is used to effect solution. Two denaturing agents are also tested: […] Horse Serum restored with 100 ml distilled water and 10% Trition×100. When used, 2.5 ml of the denaturing agent is mixed with 2.5 ml of double strength test solution thirty minutes before the bacterial suspension is added. The screen is initiated when 0.2 ml of the bacterial suspension is added to 5.0 ml of the test solution contained in a sterile 25 ml glass stoppered flask. At intervals of 0.5, 2.5, 5.0, 10.0 and 15.0 minutes, a loopful of the inoculated test solution is subcultured into 5 ml of sterile nutrient broth and mixed with a vortex, the high dilution serving to stop the action of the compound. All of the subculture tubes are incubated at 37° C. and checked for signs of growth by turbidity at 1, 3, 5 and 7 days. The earliest subculture time at which no growth is present is considered the endpoint and is recorded as the sterilization time. An aliquot of 0.2 ml of the diluted culture is transferred to 5 ml of buffer to simulate 0.2 ml in 5 ml of test solution. (a) Purity: A loopful of the inoculated buffer is streaked onto nutrient agar to check colony morphology and lack of contaminants. (b) Viability: A loopful of the inoculated buffer is subcultured to 5 ml of nutrient broth as in the screen and incubated at 37° C. for 24 hours. (c) Dilution of the Test Solution: A loopful of the test solution is transferred to a 5 ml tube of nutrient broth, and a loopful of the inoculated buffer is transferred to the same tube of broth. […] (d) Purity of Organisms in the Test Solution: After the 15 minute subculture, a loopful of the inoculated test solution is streaked onto nutrient agar to insure that contamination has not occurred during the screen. (e) lack of Bactericidal Activity of Buffers and Other Solvents: Before a buffer or other solvent is used as a diluent, it is screened against the five organisms to insure that the buffer or solvent has no antibacterial activity itself.

[1] = test system: Staphylococcus epidermidis; test: Contact germicidal screen, Staphylococcus epidermidis ATCC No. 12228
Experimental: as §1

Salmonella typhimurium = test: Contact germicidal screen, Salmonella typhimurium ATCC No. 13311
Experimental: as §1

[2] = 10.0+ PPM, 0.1M NaOAc pH 4.6, screened simultaneously with four other compounds
[3] = 291.4 PPM, Triton X100 (10% solution):pH 4.6 buffer 1:1
[4] = 291.4 PPM, horse serum:pH 4.6 buffer 1:1
[5] = 300 PPM with 50% Horse Serum, 0.1M NaOAc pH 4.6
[6] = 300 PPM with 50% Triton X100, 0.1M NaOAc pH 4.6
[7] = 1000 PPM with 50% Horse Serum, 0.1M NaOAc pH 4.6
[8] = 1024.4 PPM, 0.1M NaH2PO4 pH 7.0
[9] = 1042.0 PPM, horse serum:pH 4.6 buffer 1:1

SMILES: CC(C)(COC(=O)CCCC(=O)O)N(Cl)Cl [(V), 2-dichloramino-2-methylpropyl-hemiglutarate]
- Sterilization Time (Staphylococcus aureus; [2]): 10.0 min
- Sterilization Time (Staphylococcus aureus; 10.0 PPM, 0.1M NaH2PO4 pH 7.0): 15 min
- Sterilization Time (summary) (Staphylococcus aureus; 10 PPM, 0.1M NaOAc pH 4.6): 10.0 min
- Sterilization Time (Staphylococcus aureus; 10.0 PPM, 0.1M NaOAc pH 4.6): 10.0 min
- Sterilization Time (Staphylococcus aureus; 99.1 PPM, 0.1M NaOAc pH 4.6): 2.5 min
- Sterilization Time (summary) (Staphylococcus aureus; 100 PPM, 0.1M NaOAc pH 4.6): 2.5 min
- Sterilization Time (Staphylococcus aureus; 106.7 PPM, 0.1M NaH2PO4 pH 7.0): 15 min
- Sterilization Time (Staphylococcus aureus; [3]): 2.5 min
- Sterilization Time (Staphylococcus aureus; [4]): 15 min
- Sterilization Time (summary) (Staphylococcus aureus; [5]): 15 min
- Sterilization Time (summary) (Staphylococcus aureus; [6]): 2.5 min
- Sterilization Time (Staphylococcus aureus; 911.8 PPM, 0.1M NaOAc pH 4.6): 0.5 min
- Sterilization Time (summary) (Staphylococcus aureus; [7]): 2.5 min
- Sterilization Time (summary) (Staphylococcus aureus; 1000 PPM, 0.1M NaOAc pH 4.6): 0.5 min
- Sterilization Time (Staphylococcus aureus; [8]): 5.0 min
- Sterilization Time (Staphylococcus aureus; [9]): 2.5 min
- Sterilization Time [1, 2]: 10.0 min
- Sterilization Time ([1]; 10.0 PPM, 0.1M NaH2PO4 pH 7.0): 15 min
- Sterilization Time (summary) ([1]; 10 PPM, 0.1M NaOAc pH 4.6): 10.0 min
- Sterilization Time ([1]; 10.0 PPM, 0.1M NaOAc pH 4.6): 10.0 min
- Sterilization Time ([1]; 99.1 PPM, 0.1M NaOAc pH 4.6): 2.5 min
- Sterilization Time (summary) ([1]; 100 PPM, 0.1M NaOAc pH 4.6): 2.5 min
- Sterilization Time ([1]; 106.7 PPM, 0.1M NaH2PO4 pH 7.0): 15 min
- Sterilization Time [1, 3]: 2.5 min
- Sterilization Time [1, 4]: 15 min
- Sterilization Time (summary) [1, 5]: 15 min
- Sterilization Time (summary) [1, 6]: 2.5 min
- Sterilization Time ([1]; 911.8 PPM, 0.1M NaOAc pH 4.6): 0.5 min
- Sterilization Time (summary) [1, 7]: 2.5 min
- Sterilization Time (summary) ([1]; 1000 PPM, 0.1M NaOAc pH 4.6): 0.5 min
- Sterilization Time [1, 8]: 10.0 min
- Sterilization Time [1, 9]: 2.5 min
- Sterilization Time (Salmonella typhimurium; [2]): 2.5 min
- Sterilization Time (Salmonella typhimurium; 10.0 PPM, 0.1M NaH2PO4 pH 7.0): 15 min
- Sterilization Time (summary) (Salmonella typhimurium; 10 PPM, 0.1M NaOAc pH 4.6): 2.5 min
- Sterilization Time (Salmonella typhimurium; 10.0 PPM, 0.1M NaOAc pH 4.6): 5.0 min
- Sterilization Time (Salmonella typhimurium; 99.1 PPM, 0.1M NaOAc pH 4.6): 0.5 min
- Sterilization Time (summary) (Salmonella typhimurium; 100 PPM, 0.1M NaOAc pH 4.6): 0.5 min
- Sterilization Time (Salmonella typhimurium; 106.7 PPM, 0.1M NaH2PO4 pH 7.0): 15 min
- Sterilization Time (Salmonella typhimurium; [3]): 0.5 min
- Sterilization Time (Salmonella typhimurium; [4]): 10.0 min
- Sterilization Time (summary) (Salmonella typhimurium; [5]): 10.0 min
- Sterilization Time (summary) (Salmonella typhimurium; [6]): 0.5 min
- Sterilization Time (Salmonella typhimurium; 911.8 PPM, 0.1M NaOAc pH 4.6): 0.5 min
- Sterilization Time (summary) (Salmonella typhimurium; [7]): 2.5 min
- Sterilization Time (summary) (Salmonella typhimurium; 1000 PPM, 0.1M NaOAc pH 4.6): 0.5 min
- Sterilization Time (Salmonella typhimurium; [8]): 5.0 min
- Sterilization Time (Salmonella typhimurium; [9]): 2.5 min
